Test results as given in patent publication US9216178B2, “Dry blend formulation of tetrahydrobiopterin” (BioMarin Pharmaceutical Inc., priority 2011, dated 2015).
Where a name gives a salt, the structure may show the parent alone. Values belong to the compound of their own block, whether it stands above or below them.

How the values were obtained:
[1] = children treated for 4, 8, and 12 weeks; cited from earlier work
[2] = room temperature, aqueous solutions; cited from earlier work
[3] = children, after 6 months of treatment; cited from earlier work
[4] = Stability of BH4 dihydrochloride dry blend powder / sachet formulations; type: physicochemical; details: Initial time point
Description: Stability under different storage conditions were assessed and the potency of the active BH4 dihydrochloride is presented.
Certain embodiments of the sachet dosage forms of the present disclosure are illustrated in Table 18, with a comparison of the stability of different BH4 or BH4-related compounds packaged in foil pouches.

physchem = type: physicochemical; details: water
Text: However, despite the commonality of wet granulation methods, it is not ideal for all blends. Specifically, BH4 dihydrochloride is moisture sensitive and will rapidly degrade in the presence of water. Furthermore, BH4 dihydrochloride is pH sensitive and commonly degrades in the presence of reducing sugars, flavoring agents, flavor enhancers, and aqueous solutions and thus wet blending of BH4 dihydrochloride with excipients can lead to degradation of the active ingredient. […] Accordingly, the dry blend method of producing a stable BH4 dihydrochloride powder sachet dosage is ideal.

[5] = Clinical evaluation of BH4 capsules: drug levels in cerebrospinal fluid; type: in vivo; details: doses up to 40 mg/kg/day as a single dose; expected
Description: The clinical evaluation comprises two clinical studies.
A first study evaluates the relative bioavailability of BH4 dihydrochloride administered as a capsule in fasted conditions and after a meal in healthy subjects. Ascending doses of BH4 dihydrochloride up to 40 mg/kg/day are evaluated and drug levels in cerebrospinal fluid (CSF) are measured. […] Measurement of BH4 levels in CSF is expected to be indicative of BH4 availability in brain tissues.

SMILES: C[C@H](O)[C@H](O)[C@H]1CNc2nc(N)[nH]c(=O)c2N1 [BH4, (6R)-L-erythro-5,6,7,8-tetrahydrobiopterin]
total scores on the Parental Satisfaction Survey (PSS) [1]: significant increases
shelf-life [2]: less than 8 hours
social interaction scores [3]: significant improvement

Degradation/impurity: BH2 (Dihydrobiopterin) [4]: 0.04 area %
Degradation/impurity: BH4 [4]: 0.05 area %
Degradation/impurity: R-Tetrahydrobiolumazine [4]: 0.05 area %
Degradation/impurity: S-BH4 [4]: 0.03 area %
Potency (%) [4]: 100.6%
Total Impurities (%) [4]: 0.17%
SMILES: C[C@H](O)[C@H](O)[C@H]1CNc2[nH]c(N)nc(=O)c2N1.Cl.Cl [100 μg/mL reference API]

solubility (physchem): > 100 mg/mL
peak levels of BH4 in CSF [5]: higher peak levels
SMILES: C[C@H](O)[C@H](O)[C@H]1CNc2nc(N)[nH]c(=O)c2N1 [BH4 dihydrochloride, (6R)-L-erythro-5,6,7,8-tetrahydrobiopterin dihydrochloride]
